Results taken from patent US20030108620A1, “Pharmaceutical composition comprising a physiologically acceptable vanadium compound, salt or complex and at least a component selected from a na+/hinhibitors, cyclo-oxygenase inhibitors and caspase inhibitors” (priority 1999, published 2003).

What was measured:
[1] = test system: hearts of phenobarbital anaesthetized rats; test: Infarcted area after 60 minutes coronary artery occlusion and 180 minutes of reperfusion in anaesthetized rats; assay type: in vivo, rat; settings: for LA/AR ratio: normothermia (36.5-37.5° C.), mean±standard error margin, n=6, P<0.001, pretreated 25 minutes prior to CAO; for IA (% AR) / % Reduction: rat, 60 min CAO and 180 min reperfusion; for IA (% AR): i.v. bolus 25 minutes prior to CAO, BMOV 3.3 mg/kg, DMA 3.0 mg/kg; for % Reduction: reduction of IA (% AR) versus control
Method: Area at risk (AR) and infarcted area (IA) were determined in hearts of phenobarbital anaesthetized rats after 60 minutes coronary artery occlusion (CAO) and 180 minutes of reperfusion. […] The mean AR expressed as percentage of the left ventricle was not different between the control and the experimental group.

deep burn wounds, dermis = test: Deep burn wound model in the Yorkshire pig, preservation of the dermis; assay type: in vivo, Yorkshire White; settings: intravenously in a single dose; for % Preservation of dermis: equal dose in g/kg bodyweight
Text: The Yorkshire pig has been chosen as the experimental animal because of all animal species this domestic pig seems to be the one with morphological and functional skin characteristics nearest to human skin and so best fulfils the requirements of a model for human skin. In basic architecture it resembles human skin in the relative thickness of the epidermis and dermis, the presence of epidermal ridges, a distinct dermal papillary layer and a deep layer of subdermal fat. Compared to human the elastic fibre content of porcine dermis is relatively low, but higher than in any other species. […] Studies on the proliferation rate of porcine epidermis show parallels with those of humans. The keratinous proteins are similar. Unlike the skin of rodents, the follicular pattern in pigs and humans is relatively sparse and arranged as single hairs or in groups of two or three follicles. […] The regulation of body temperature by the skin is more evident in humans than in the pig. In the skin of the pig no eccrine glands are found. It does have apocrine glands, but their role in thermoregulation remains debatable. The vascular anatomy of pig skin consists of a three layered network; lower, mid-dermal and sub epidermal. The size, orientation and distribution of the vessels are strikingly similar to human skin, but it does differ from humans in that the sub epidermal network is less dense. The vascularisation of the lower region of the follicle corresponds to that in humans. The healing of deep dermal bums, which depends on this phenomenon, might also be analogous. Studies on the thermal properties of porcine skin as a function of depth have been performed by measuring the tissue water content.
Protocol 1a: Twelve identical deep burn wounds were inflicted in each animal. The animal model used is developed in the Burn Research Institute (Beverwijk, The Netherlands) and is a standard for all of the experimental burn wound research. The model is also accepted by the animal experimental commission of the University of Amsterdam.
Protocol 1b: Six biopsies of 6 mm of the burned area were taken from each big and transferred to a non-burned area. Six biopsies of 6 mm of the non-burned area were be taken from each pig and transferred to a burned area. (Determination of the indirect injury) Animals: pig, Yorkshire White, female, +/− 30 kg. […]

swine myocardium = settings: also when administered after the onset of ischaemia; cited from earlier work

| SMILES | LA/AR ratio [1] [%] | IA (% AR) [1] [% AR] | % Reduction [1] [%] | protection of structures in the dermis (deep vascular plexus, hair-adnexes, sweat glands) (deep burn wounds, dermis) | % Preservation of dermis (deep burn wounds, dermis) | infarct size (swine myocardium) |
| --- | --- | --- | --- | --- | --- | --- |
| Cc1occc(=O)c1[O-].Cc1occc(=O)c1[O-].[O]=[V+2] [BMOV, bis(maltolato)oxovanadium(IV)] | 45±3 | 45 | 36 | protected | 40-50% |  |
| CN(C)c1nc(N)c(C(=O)N=C(N)N)nc1Cl [DMA, dimethylamiloride] | 45±3 | 55 | 21 | protected | 20% |  |
| CS(=O)(=O)O.CS(=O)(=O)c1cc(C(=O)NC(=N)N)ccc1N1CCCCC1 [HOE 694, (3-methylsulfonyl-4-piperidinobenzoyl)-guanidine methanesulfonate] |  |  |  |  |  | substantial reduction of the infarct size |
